Experimental findings from PMC9657391, “A Food-Grade Method for Enhancing the Levels of Low Molecular Weight Proanthocyanidins with Potentially High Intestinal Bioavailability” (International Journal of Molecular Sciences, 2022) are described below.

SMILES strings stand for the structures.

The target of this experiment is T1, COX-2 (cyclooxygenase 2) (Homo sapiens, UniProt P35354).
T1 construct: gene PTGS2
Kind of experiment: biochemical.

T1 sequence (P35354 18-604): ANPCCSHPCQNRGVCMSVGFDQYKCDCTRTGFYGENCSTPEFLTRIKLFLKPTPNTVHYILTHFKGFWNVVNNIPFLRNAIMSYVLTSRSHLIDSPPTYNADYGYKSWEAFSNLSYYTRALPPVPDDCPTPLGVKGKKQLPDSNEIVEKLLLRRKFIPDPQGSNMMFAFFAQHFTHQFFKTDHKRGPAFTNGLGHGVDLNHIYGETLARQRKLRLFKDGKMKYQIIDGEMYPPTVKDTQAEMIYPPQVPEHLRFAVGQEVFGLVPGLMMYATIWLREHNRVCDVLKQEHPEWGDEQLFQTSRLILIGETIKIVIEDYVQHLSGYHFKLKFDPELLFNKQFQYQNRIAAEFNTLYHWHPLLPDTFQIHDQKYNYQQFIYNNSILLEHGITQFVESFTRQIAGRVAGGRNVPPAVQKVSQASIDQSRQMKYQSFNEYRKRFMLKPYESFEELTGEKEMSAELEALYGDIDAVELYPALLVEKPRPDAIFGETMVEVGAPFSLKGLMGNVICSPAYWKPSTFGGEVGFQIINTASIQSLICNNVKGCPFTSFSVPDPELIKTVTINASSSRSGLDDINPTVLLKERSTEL

As usually defined, the IC50 is the concentration that inhibits the measured activity by half. A low value points to inhibition by little substance. Compound `COc1ccc2cc([C@H](C)C(=O)O)ccc2c1` [Naproxen] gave an IC50 of 13 µM.
